System: tobacco hornworm (Manduca sexta) larvae
Assay: Tobacco hornworm growth and developmental responses to feeding on diets containing the compounds
Format: in vivo
Details: for mean number of eggs: 4 day old females; for Total No. of Adults: all tests began with 15 larvae
Protocol: The compounds produced and described in Example 1 were then tested for pesticidal activity against the tobacco hornworm (Manduca sexta). The screening procedure for these tests began with the larval stage and continued through the pupal and adult stages and finally evaluated egg production. The studies thus permitted the evaluation of the effects of the compounds over several subsequent developmental stages in the total life cycle of the insect, giving estimates of acute toxicity (insecticidalor larvicidal activity) as well as prolonged or delayed effects on development (growth regulation) and reproduction (chemosterilization). The latter are of special importance in conjunction with the integrated pest management approach to insect control.
The test compounds were incorporated into the artificial diet of tobacco hornworm larvae and their subsequent growth and developmental responses were monitored using the following parameters: larval mortality including determination of LD50 values, rate of larval development and weight gain, percent pupation, pupal weight and degree of deformities, percent adult emergence and measures of reproductive capacity such as the number of developed ooctyes, fecundity and fertility. The protocol for the screening tests has been developed over a number of years by Dahlman et al., Comp. Biochem. Physiol. 51A, 33, (1975); Comp. Biochem. Physiol., 52A, 105 (1975); Ent. Exp. et Appl., 22, 123 (1977); Palumbo and D. L. Dahlman, J. Econ. Entomol. 71, 674 (1978); D. L. Dahlman, Ent. Exp. et Appl., 24, 327 (1978).
Each treatment used 15 newly ecdysed fifth-instar larvae. Death of larvae within a few hours to several days of initial exposure was considered to be acute toxicity. However, the compounds may reduce the maximum size attained by larvae and/or may retard growth so that larvae require additional time to attain their maximum size. Developmental parameters subsequent to the feeding stage also may be affected. […] Mortality may occur in the pupal stage or emerging adults may have wrinkled wings or other deformities. The number of eggs produced by treated females may be reduced and/or unfertile. Although acute toxicity is desirable in the control of any insect, the delayed effects which result in poor survival and reduced reproductive capacity are significant factors in the long-range program of pest management systems.
Continuous cultures of M. sexta are maintained according to the procedures of Yamamoto, J. Econ. Entomol., 62, p. 1427 (1969). Ingredients of the diet formulation include sugar, casein, wheat germ oil, cholesterol, salt mixture, yeast, vitamins, antioxidants and fungal inhibitors, such as ascorbic acid, sorbic acid, formaldehyde and methyl-p-benzoate. All are incorporated into a liquid agar base which, when poured into holding pans, solidifies to form an adequate substrate upon which the insect larvae feed. Nearly any test material can be uniformly incorporated into such a diet. Thus, exposure to experimental compounds can be evaluated during all or any part of the larval stage. In addition, chronic or long-term effects in subsequent life stages can also be monitored.
The results from these studies, in which the 1,2-diphenylaziridines of Example 1 were incorporated singly into the diet of M. sexta at a concentration of 5 mM are presented in the following Table I.

Row | Compound | % Adult Emergence (5 mM in diet) [%] | % Malformed Adults (5 mM in diet) [%] | % Pupation (5 mM in diet) [%] | Days to Max Wt (5 mM in diet) | Max Larval Wt (5 mM in diet) | Mean No. of Eggs (5 mM in diet) | No. of female Adults (5 mM in diet) | feeding time required to attain reduced maximum weight (5 mM in diet) | larval mortality (5 mM in diet) | percent adult emergence (5 mM in diet) | percent pupation (5 mM in diet) | reduction in the maximum weight of hornworm larvae (5 mM in diet) | wrinkled or crumpled wings of moths (5 mM in diet) | mean number of eggs (5 mM in diet) | Total No. of Adults (5 mM in diet) | effects on tobacco hornworm development (summary of Tables I and II) | pupal mortality (5 mM in diet) | pupal mortality (summary of Tables I and II)
1 | Clc1cccc(N2CC2c2ccccc2Cl)c1 (stereo not drawn) [Compound 12] | 47 | 57 | 60 | 7.6 ± .8 days | 5.96 ± .40 g | 8 ± 11 | 2 | extended the feeding time | significant larval mortality | significantly lower than controls | a reduction in percent pupation | 30-50% | observed in significant numbers of moths | significantly reduced the mean number of eggs | 7 | reduction in maximum larval weight, percent pupation, and mean number of eggs, and an increase in malformed adults |  | 
2 | O=[N+]([O-])c1ccccc1C1CN1c1ccc(Cl)c(Cl)c1 (stereo not drawn) [Compound 2] | 47 | 71 | 93 | 6.2 ± .1 days | 8.58 ± .31 g | 83 ± 29 | 5 |  |  |  |  |  | observed in significant numbers of moths |  | 7 |  | significant pupal mortality | caused pupal mortality
3 | CCc1ccc(N2CC2c2ccccc2Cl)cc1 (stereo not drawn) [Compound 16] | 80 | 20 | 87 | 5.5 ± .2 days | 7.48 ± .31 g | 44 | 4 |  |  |  |  |  |  |  | 12 |  |  | 
4 | Clc1ccc(C2CN2c2ccc(Br)cc2)cc1 (stereo not drawn) [Compound 9] | 86 | 15 | 93 | 5.0 ± .0 days | 6.46 ± .23 g | 74 ± 14 | 7 |  |  |  |  | 30-50% |  |  | 13 |  |  | 
5 | O=[N+]([O-])c1cccc(N2CC2c2ccccc2[N+](=O)[O-])c1 (stereo not drawn) [Compound 3] | 80 | 8 | 100 | 5.2 ± .1 days | 9.21 ± .24 g | 97 ± 14 | 9 |  |  |  |  |  |  |  | 12 | had no effect |  | 
6 | c1ccc(C2CN2c2ccccc2)cc1 (stereo not drawn) [Compound 7, 1,2-diphenylaziridine] | 80 | 0 | 100 | 6.7 ± .2 days | 9.29 ± .17 g | 79 ± 19 | 10 |  |  |  |  |  |  |  | 12 | had no effect |  | 
7 | Brc1ccc(N2CC2c2ccccc2)cc1 (stereo not drawn) [Compound 6] | 47 | 27 | 53 | 9.2 ± .5 days | 4.83 ± .42 g | 7 ± 5 | 5 | extended the feeding time | significant larval mortality | significantly lower than controls | a reduction in percent pupation | 30-50% | observed in significant numbers of moths | significantly reduced the mean number of eggs | 7 | reduction in maximum larval weight, percent pupation, and mean number of eggs, and an increase in malformed adults |  | 
